From article PMC10060569 (Frontiers in Pharmacology, 2023) come the findings set out here.

One assay deals with G189A/S15V-hP2X3R. Description: TEVC of ATP-induced currents, G189A/S15V-hP2X3R mutant in X. laevis oocytes. The assay is classed as cell-based, human. The settings on record: ± SEM.
For the next assay, the target named is T1, N190A/S15V-hP2X3R (Homo sapiens, UniProt P56373, N190A/S15V).
T1 construct: expressed in transfected cells; host or cells: Xenopus laevis oocytes (cRNA injection)
T1 sequence (P56373 1-397 S15V/N190A): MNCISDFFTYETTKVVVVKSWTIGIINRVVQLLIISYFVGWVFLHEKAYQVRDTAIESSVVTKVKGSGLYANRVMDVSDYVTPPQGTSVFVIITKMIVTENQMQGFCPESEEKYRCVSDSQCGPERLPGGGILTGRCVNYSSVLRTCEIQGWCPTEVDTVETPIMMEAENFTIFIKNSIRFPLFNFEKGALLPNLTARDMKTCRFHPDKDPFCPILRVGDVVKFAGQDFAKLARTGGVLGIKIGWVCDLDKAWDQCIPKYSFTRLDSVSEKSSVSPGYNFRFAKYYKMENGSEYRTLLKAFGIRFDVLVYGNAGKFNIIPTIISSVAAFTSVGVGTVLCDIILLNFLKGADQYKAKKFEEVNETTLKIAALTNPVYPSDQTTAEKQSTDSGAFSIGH
Put plainly: TEVC of ATP-induced currents, N190A/S15V-hP2X3R mutant in X. laevis oocytes. The note with it: read-out: % inhibition of 10 µM ATP-induced currents by 10 µM diclofenac. The assay is classed as cell-based. The method, then:
Ion currents mediated by P2X receptors were evoked by the indicated concentration of ATP or α,β-meATP and were recorded 1 or 2 days after cRNA injection at ambient temperature at a holding potential of −60 mV by two-electrode voltage clamp (TEVC) as previously described ([Hausmann et al., 2006]). Calcium-free ORi^− solution (90 mM NaCl, 1 mM KCl, 2 mM MgCl2, 10 mM HEPES, pH 7.4) was used to avoid bias due to calcium-activated chloride channels (CaCC) endogenously expressed in X. laevis oocytes ([Miledi, 1982]; [Methfessel et al., 1986]). […]
In the case of fast-desensitizing P2XR subtypes (P2X1R and P2X3R), ATP is applied five times in repetition, and the ATP-induced current amplitude in the presence (after pre-incubation) of the antagonist (fourth application) is compared to the arithmetic mean of flanking control ATP-induced current amplitudes in the absence of the antagonist (third and fifth ATP application). […] The correction factor was calculated as the ratio of the fourth ATP-induced current amplitude to the third amplitude (Eq. 3) when the experiment was performed in the absence of the antagonist. […] Since the magnitude of the run-down varies from day to day and batch to batch of oocytes, the correction factor was determined on each day of the experiments and was calculated as the arithmetic mean of several recordings (at least 3–5 and on average 5) on each day. […]

For the compound `O=C(O)Cc1ccccc1Nc1c(Cl)cccc1Cl` [Diclofenac, diclofenac], the “% inhibition of 10 µM ATP-induced currents by 10 µM diclofenac” value in the assay on G189A/S15V-hP2X3R is recorded as 6.4% ± 3.0%. Further, the inhibition at 10 µM at N190A/S15V-hP2X3R amounted to 8.1%.
